Where two headings read alike, the source gives them in different places.
What was measured:
Format in all cases: cell-based
[1] = antibacterial activity (general statement, no method given); conditions: prepared and tested by the applicant; no method or organisms given
[2] = test system: Proteus morganii I580; test: MIC, DST agar + 10% horse blood; conditions: Morganella morganii
Excerpt: (§1) The ninimum inhibitory concentrations (MIC) cf this compound required to inhibit the growth of various bacteria are tabulated balow: […]

[3] = test system: Bacillus subtilis A; test: MIC, DST agar + 10% horse blood; conditions: read-out: MIC Agar
Excerpt: as §1

[4] = test system: Proteus mirabilis C977; test: MIC, DST agar + 10% horse blood
Excerpt: as §1

[5] = test system: Proteus rettgeri WM16; test: MIC, DST agar + 10% horse blood; conditions: Providencia rettgeri
Excerpt: as §1

[6] = test system: Streptococcus pyogenes CN10; test: MIC, DST agar + 10% horse blood
Excerpt: as §1

[7] = test system: Staphylococcus aureus Oxford; test: MIC, DST agar + 10% horse blood; conditions: read-out: MIC Agar
Excerpt: as §1

[8] = test system: E. coli ESS; test: MIC, DST agar + 10% horse blood; conditions: Escherichia coli, inoculum 0.001 ml of an undilute overnight broth culture
Excerpt: as §1

[9] = test system: Pseudomonas aeruginosa A; test: MIC, DST agar + 10% horse blood; conditions: read-out: MIC Agar
Excerpt: as §1

[10] = test system: Salmonella typhimurium CT10; test: MIC, DST agar + 10% horse blood; conditions: Salmonella enterica, read-out: MIC Agar
Excerpt: as §1

[11] = test system: Staphylococcus aureus Russell; test: MIC, DST agar + 10% horse blood; conditions: read-out: MIC Agar
Excerpt: as §1

[12] = test system: Escherichia coli 0111; test: MIC, DST agar + 10% horse blood; conditions: Escherichia coli 0111, inoculum 0.001 ml of an undilute overnight broth culture
Excerpt: as §1

[13] = test system: Staphylococcus aureus 1517; test: MIC, DST agar + 10% horse blood
Excerpt: as §1

[14] = test system: Escherichia coli JT 39; test: MIC, DST agar + 10% horse blood
Excerpt: as §1

[15] = test system: Proteus vulgaris W091; test: MIC, DST agar + 10% horse blood
Excerpt: as §1

[16] = test system: Streptococcus pneumoniae CN33; test: MIC, DST agar + 10% horse blood
Excerpt: as §1

[17] = test system: Citrobacter freundii E8; test: MIC, DST agar + 10% horse blood
Excerpt: as §1

[18] = test system: Streptococcus faecalis I; test: MIC, DST agar + 10% horse blood; conditions: Enterococcus faecalis, read-out: MIC Agar
Excerpt: as §1

[19] = test system: Klebsiella aerogenes A; test: MIC, DST agar + 10% horse blood; conditions: read-out: MIC Agar
Excerpt: as §1

[20] = test system: Serratia marcescens US20; test: MIC, DST agar + 10% horse blood
Excerpt: as §1

[21] = test system: Proteus mirabilis C977; test: MIC, microtitre using Nutrient broth
Excerpt: as §1

[22] = test system: Staphylococcus aureus Oxford; test: MIC, microtitre using Nutrient broth; conditions: read-out: MIC Broth
Excerpt: as §1

[23] = test system: Pseudomonas aeruginosa A; test: MIC, microtitre using Nutrient broth; conditions: read-out: MIC Broth
Excerpt: as §1

[24] = test system: Staphylococcus aureus Russell; test: MIC, microtitre using Nutrient broth; conditions: read-out: MIC Broth
Excerpt: as §1

[25] = test system: Escherichia coli 0111; test: MIC, microtitre using Nutrient broth; conditions: Microtitre using Nutrient broth, inoculum 0.001 ml of an undilute overnight broth culture
Excerpt: as §1

[26] = test system: Escherichia coli JT 39; test: MIC, microtitre using Nutrient broth
Excerpt: as §1

[27] = test system: Klebsiella aerogenes A; test: MIC, microtitre using Nutrient broth; conditions: read-out: MIC Broth
Excerpt: as §1

[28] = test system: Shigella sonnei MB 11967; test: MIC, DST agar + 10% horse blood; conditions: MB11967, inoculum 0.001 ml of an undilute overnight broth culture
Excerpt: as §1

[29] = test system: Enterobacter cloacae N1; test: MIC, DST agar + 10% horse blood; conditions: Enterobacter cloacae, N1, read-out: MIC Agar
Excerpt: as §1

[30] = Bacillus subtilis A, DST agar + 10% horse blood, inoculum 0.001 ml of an undilute overnight broth culture
[31] = Streptococcus pyogenes CN10, DST agar + 10% horse blood, inoculum 0.001 ml of an undilute overnight broth culture, read-out: MIC Agar
[32] = Staphylococcus aureus Oxford, DST agar + 10% horse blood, inoculum 0.001 ml of an undilute overnight broth culture
[33] = Staphylococcus aureus Russell, DST agar + 10% horse blood, inoculum 0.001 ml of an undilute overnight broth culture
[34] = Staphylococcus aureus Oxford, Microtitre using Nutrient broth, inoculum 0.001 ml of an undilute overnight broth culture
[35] = Staphylococcus aureus Russell, Microtitre using Nutrient broth, inoculum 0.001 ml of an undilute overnight broth culture
[36] = Proteus mirabilis, C977, read-out: MIC Agar
[37] = Streptococcus pyogenes, CN10, read-out: MIC Agar
[38] = Staphylococcus aureus, 1517, read-out: MIC Agar
[39] = Escherichia coli, JT39, read-out: MIC Agar
[40] = Proteus vulgaris, W091, read-out: MIC Agar
[41] = Streptococcus pneumoniae, CN33, read-out: MIC Agar
[42] = Citrobacter freundii, E8, read-out: MIC Agar
[43] = Serratia marcescens, US20, read-out: MIC Agar
[44] = Proteus mirabilis, C977, read-out: MIC Broth
[45] = Escherichia coli, JT39, read-out: MIC Broth

Row | SMILES | MIC [3, 30] [µg/mL] | MIC [6, 31] [µg/mL] | MIC [7, 32] [µg/mL] | MIC [8] [µg/mL] | MIC [11, 33] [µg/mL] | MIC [12] [µg/mL] | MIC [22, 34] [µg/mL] | MIC [24, 35] [µg/mL] | MIC [25] [µg/mL] | MIC ([2]; I580, read-out: MIC Agar) [µg/mL] | MIC ([3]; Bacillus subtilis) [µg/mL] | MIC [4, 36] [µg/mL] | MIC ([5]; WM16, read-out: MIC Agar) [µg/mL] | MIC [28] [µg/mL] | MIC [6, 37] [µg/mL] | MIC ([7]; Staphylococcus aureus) [µg/mL] | MIC ([9]; Pseudomonas aeruginosa) [µg/mL] | MIC ([10]; TYPHIMURIUM) [µg/mL] | MIC ([11]; Staphylococcus aureus) [µg/mL] | MIC [16, 41] [µg/mL] | other results
1 | O=C(O)C1=CSC2CC(=O)N12 (stereo not drawn) | – | – | – | – | – | – | – | – | – | – | – | – | – | – | – | – | – | – | – | – | antibacterial activity [1]: somewhat disappointing degree of antibacterial activity
2 | CC(=O)NCCOCC1=C(C(=O)O)N2C(=O)CC2S1 (stereo not drawn) [compound 23, Sodium 2-(2-acetamidoethoxy)methylponom-3-carooxylate] | 2.5 | 1 | 2.5 | 10 | 25 | 25 | 4 | 16 | 31 | – | – | – | – | – | – | – | – | – | – | – | MIC ([2]; Proteus morganii I580, DST agar + 10% horse blood, inoculum 0.001 ml of an undilute overnight broth culture, read-out: MIC Agar): > 100 µg/mL; MIC ([4]; Proteus mirabilis C977, DST agar + 10% horse blood, inoculum 0.001 ml of an undilute overnight broth culture, read-out: MIC Agar): 25 µg/mL; MIC ([5]; Proteus rettgeri WM16, DST agar + 10% horse blood, inoculum 0.001 ml of an undilute overnight broth culture, read-out: MIC Agar): > 100 µg/mL; MIC ([9]; Pseudomonas aeruginosa A, DST agar + 10% horse blood, inoculum 0.001 ml of an undilute overnight broth culture): > 100 µg/mL; MIC ([10]; Salmonella typhimurium CT10, DST agar + 10% horse blood, inoculum 0.001 ml of an undilute overnight broth culture): 25 µg/mL; MIC ([13]; Staphylococcus aureus 1517, DST agar + 10% horse blood, inoculum 0.001 ml of an undilute overnight broth culture, read-out: MIC Agar): 50 µg/mL; MIC ([14]; JT39, Escherichia coli JT 39, DST agar + 10% horse blood, inoculum 0.001 ml of an undilute overnight broth culture, read-out: MIC Agar): > 100 µg/mL; MIC ([15]; Proteus vulgaris W091, DST agar + 10% horse blood, inoculum 0.001 ml of an undilute overnight broth culture, read-out: MIC Agar): > 100 µg/mL; MIC ([16]; Streptococcus pneumoniae CN33, DST agar + 10% horse blood, inoculum 0.001 ml of an undilute overnight broth culture, read-out: MIC Agar): 0.5 µg/mL; MIC ([17]; Citrobacter freundii E8, DST agar + 10% horse blood, inoculum 0.001 ml of an undilute overnight broth culture, read-out: MIC Agar): 25 µg/mL; MIC ([18]; Streptococcus faecalis I, DST agar + 10% horse blood, inoculum 0.001 ml of an undilute overnight broth culture): > 100 µg/mL; MIC ([19]; Klebsiella aerogenes A, DST agar + 10% horse blood, inoculum 0.001 ml of an undilute overnight broth culture): 100 µg/mL; MIC ([20]; Serratia marcescens US20, DST agar + 10% horse blood, inoculum 0.001 ml of an undilute overnight broth culture, read-out: MIC Agar): 100 µg/mL; MIC ([21]; Proteus mirabilis C977, Microtitre using Nutrient broth, inoculum 0.001 ml of an undilute overnight broth culture, read-out: MIC Broth): 31 µg/mL; MIC ([23]; Pseudomonas aeruginosa A, Microtitre using Nutrient broth, inoculum 0.001 ml of an undilute overnight broth culture): > 500 µg/mL; MIC ([26]; JT39, Escherichia coli JT 39, Microtitre using Nutrient broth, inoculum 0.001 ml of an undilute overnight broth culture, read-out: MIC Broth): 250 µg/mL; MIC ([27]; Klebsiella aerogenes A, Microtitre using Nutrient broth, inoculum 0.001 ml of an undilute overnight broth culture): 62 µg/mL
3 | COCOCC1=C(C(=O)[O-])N2C(=O)C[C@H]2S1.[Na+] [compound 25, Sodium 2-methoxymethoxymethylpenem-3-carboxylate] | – | – | – | 2.5 | – | 5 | – | – | 16 | > 50 | 1.2 | 12.5 | 25 | 5 | 0.5 | 2.5 | > 50 | 5 | 5 | 0.2 | MIC [29]: > 50 µg/mL; MIC [13, 38]: > 50 µg/mL; MIC [14, 39]: > 50 µg/mL; MIC [15, 40]: > 50 µg/mL; MIC [17, 42]: 12.5 µg/mL; MIC [18]: 50 µg/mL; MIC ([19]; Klebsiella aerogenes): 25 µg/mL; MIC [20, 43]: 25 µg/mL; MIC [21, 44]: 16 µg/mL; MIC ([22]; Staphylococcus aureus): 2 µg/mL; MIC ([23]; Pseudomonas aeruginosa): 500 µg/mL; MIC ([24]; Staphylococcus aureus): 8 µg/mL; MIC [26, 45]: 125 µg/mL; MIC ([27]; Klebsiella aerogenes): 16 µg/mL
4 | CC(=O)NCOCC1=C(C(=O)[O-])N2C(=O)C[C@H]2S1.[Na+] [compound 29, Sodium 2-acetamidomethoxymethylpenem-3-carboxylate] | – | – | – | 2.5 | – | 5 | – | – | 16 | > 50 | 1.2 | 12.5 | 50 | 5 | 0.5 | 2.5 | > 50 | 5 | 12.5 | 0.2 | MIC [29]: > 50 µg/mL; MIC [13, 38]: 50 µg/mL; MIC [14, 39]: > 50 µg/mL; MIC [15, 40]: > 50 µg/mL; MIC [17, 42]: 5 µg/mL; MIC [18]: 50 µg/mL; MIC ([19]; Klebsiella aerogenes): 50 µg/mL; MIC [20, 43]: 25 µg/mL; MIC [21, 44]: 31 µg/mL; MIC ([22]; Staphylococcus aureus): 8 µg/mL; MIC ([23]; Pseudomonas aeruginosa): > 500 µg/mL; MIC ([24]; Staphylococcus aureus): 16 µg/mL; MIC [26, 45]: 125 µg/mL; MIC ([27]; Klebsiella aerogenes): 62 µg/mL
5 | CCOC(C)OCC1=C(C(=O)[O-])N2C(=O)C[C@H]2S1.[Na+] (stereo partly drawn) [compound 34, Sodium 2-(1-ethoxyethoxy)methylpenem-3-carboxylate] | – | – | – | – | – | – | – | – | – | – | – | – | – | – | 1 | 2.5 | – | – | 10 | 1 | –
6 | CNC(=O)OCC1=C(C(=O)O)N2C(=O)CC2S1 (stereo not drawn) [compound 36, Sodium 2-N-methylcarbamoyloxymethylpenem-3-carboxylate] | 2.5 | 25 | 12.5 | – | 12.5 | – | 8 | 16 | – | – | – | – | – | – | – | – | – | – | – | – | –

Source: patent EP0013067A1, “Bicyclic beta-lactam antibacterial agents, their use in pharmaceutical compositions, processes for their preparation and intermediates for use in such processes” (BEECHAM GROUP PLC, priority 1978, dated 1980)
